Results as given in patent publication US20210045385A1, “PYRIDAZINONE-SUBSTITUTED KETOXIMES AS HERBICIDES” (FMC Corporation, priority 2018, published 2021).

What was measured:
Format in all cases: in vivo
[1] = test system: Italian ryegrass (Lolium mutiflorum); assay: Test C preemergence, visual plant response rating
Summary of the method: (§1)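 Compounds in a non-phytotoxic solvent with surfactant were applied as a directed soil spray preemergence or to 2–10 cm, one- to two-leaf plants postemergence, in loam–sand soil. After about 10 d in a greenhouse, injury was visually rated against untreated controls on a 0–100 scale (100 = complete control).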

[2] = test system: barnyardgrass (Echinochloa crus-galli); assay: Test C preemergence, visual plant response rating
Summary of the method: as §1

[3] = test system: foxtail, giant (giant foxtail, Setaria faberi); assay: Test C preemergence, visual plant response rating
Summary of the method: as §1

kochia (Bassia scoparia) [4] = assay: Test C preemergence, visual plant response rating
Summary of the method: as §1

[5] = test system: pigweed (Amaranthus retroflexus); assay: Test C preemergence, visual plant response rating
Summary of the method: as §1

[6] = test system: ragweed (common ragweed, Ambrosia artemisiifolia); assay: Test C preemergence, visual plant response rating
Summary of the method: as §1

[7] = test system: Italian ryegrass (Lolium mutiflorum); assay: Test C postemergence, visual plant response rating
Summary of the method: as §1

[8] = test system: barnyardgrass (Echinochloa crus-galli); assay: Test C postemergence, visual plant response rating; details: Test C, postemergence
Summary of the method: as §1

[9] = test system: blackgrass (Alopecurus myosuroides); assay: Test C postemergence, visual plant response rating; details: Test C, postemergence
Summary of the method: as §1

corn (Zea mays) = assay: Test C postemergence, visual plant response rating; details: Test C, postemergence
Summary of the method: as §1

[10] = test system: foxtail, giant (giant foxtail, Setaria faberi); assay: Test C postemergence, visual plant response rating; details: Test C, postemergence
Summary of the method: as §1

[11] = test system: galium (catchweed bedstraw, Galium aparine); assay: Test C postemergence, visual plant response rating; details: Test C, postemergence
Summary of the method: as §1

kochia (Bassia scoparia) [12] = assay: Test C postemergence, visual plant response rating; details: Test C, postemergence
Summary of the method: as §1

[13] = test system: pigweed (Amaranthus retroflexus); assay: Test C postemergence, visual plant response rating
Summary of the method: as §1

[14] = test system: ragweed (common ragweed, Ambrosia artemisiifolia); assay: Test C postemergence, visual plant response rating
Summary of the method: as §1

[15] = test system: wheat (Triticum aestivum); assay: Test C postemergence, visual plant response rating
Summary of the method: as §1

[16] = test system: barnyardgrass (Echinochloa crus-galli); assay: Test D flooded paddy test, visual plant response rating; details: 250 g ai/ha, scale 0 to 100 (0 no effect, 100 complete control), 13 to 15 d
Summary of the method: (§2)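 2-leaf plants, flooded 3 cm, cpd into paddy water; greenhouse 13–15 d; visual rating vs controls, 0 = no effect, 100 = complete control; dash = no result.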

[17] = test system: duck salad (Heteranthera limosa); assay: as above; details: 250 g ai/ha, scale 0 to 100 (0 no effect, 100 complete control), 13 to 15 d
Summary of the method: as §2

rice (Oryza sativa) = assay: as above; details: 250 g ai/ha, scale 0 to 100 (0 no effect, 100 complete control), 13 to 15 d
Summary of the method: as §2

[18] = test system: sedge umbrella (small-flower umbrella sedge, Cyperus difformis); assay: as above; details: 250 g ai/ha, scale 0 to 100 (0 no effect, 100 complete control), 13 to 15 d
Summary of the method: as §2

[19] = Test C, 31 g ai/ha, 0 is no effect, 100 is complete control
[20] = Test C, postemergence, 125 g ai/ha

SMILES | Ryegrass, Italian plant response rating (0 to 100 scale) ([1]; 125 g ai/ha) | Ryegrass, Italian plant response rating (0 to 100 scale) [1, 19] | Barnyardgrass plant response rating (0 to 100 scale) ([2]; 125 g ai/ha) | Barnyardgrass plant response rating (0 to 100 scale) [2, 19] | Foxtail, Giant plant response rating (0 to 100 scale) ([3]; 125 g ai/ha) | Foxtail, Giant plant response rating (0 to 100 scale) [3, 19] | Kochia plant response rating (0 to 100 scale) (kochia (Bassia scoparia) [4]; 125 g ai/ha) | Kochia plant response rating (0 to 100 scale) (kochia (Bassia scoparia) [4]; [19]) | Pigweed plant response rating (0 to 100 scale) ([5]; 125 g ai/ha) | Pigweed plant response rating (0 to 100 scale) [5, 19] | Ragweed plant response rating (0 to 100 scale) ([6]; 125 g ai/ha) | Ragweed plant response rating (0 to 100 scale) [6, 19] | Ryegrass, Italian plant response rating (0 to 100 scale) ([7]; Postemergence, 31 g ai/ha) | Ryegrass, Italian plant response rating (0 to 100 scale) [7, 20] | Barnyardgrass plant response rating (0 to 100 scale) ([8]; 31 g ai/ha) | Barnyardgrass plant response rating (0 to 100 scale) ([8]; 125 g ai/ha) | Blackgrass plant response rating (0 to 100 scale) ([9]; 31 g ai/ha) | Blackgrass plant response rating (0 to 100 scale) ([9]; 125 g ai/ha) | Corn plant response rating (0 to 100 scale) (corn (Zea mays); 31 g ai/ha) | Corn plant response rating (0 to 100 scale) (corn (Zea mays); 125 g ai/ha) | also measured
CO/N=C(\c1cc(F)cc(F)c1C)c1c(O)c(C)nn(C)c1=O [Compound 152] | 80 | 20 | 10 | 0 | 20 | 0 | 10 | 0 | 30 | 0 | 40 | 20 | 20 | 80 | 0 | 20 | 0 | 10 | 0 | 0 | Foxtail, Giant plant response rating (0 to 100 scale) ([10]; 31 g ai/ha): 10; Foxtail, Giant plant response rating (0 to 100 scale) ([10]; 125 g ai/ha): 50; Galium plant response rating (0 to 100 scale) ([11]; 31 g ai/ha): 80; Galium plant response rating (0 to 100 scale) ([11]; 125 g ai/ha): 80; Kochia plant response rating (0 to 100 scale) (kochia (Bassia scoparia) [12]; 31 g ai/ha): 50; Kochia plant response rating (0 to 100 scale) (kochia (Bassia scoparia) [12]; 125 g ai/ha): 80; Pigweed plant response rating (0 to 100 scale) ([13]; Postemergence, 31 g ai/ha): 60; Pigweed plant response rating (0 to 100 scale) [13, 20]: 70; Ragweed plant response rating (0 to 100 scale) ([14]; Postemergence, 31 g ai/ha): 40; Ragweed plant response rating (0 to 100 scale) [14, 20]: 90; Wheat plant response rating (0 to 100 scale) ([15]; Postemergence, 31 g ai/ha): 0; Wheat plant response rating (0 to 100 scale) [15, 20]: 0; Plant response rating, Barnyardgrass (Flood) [16]: 0; Plant response rating, Ducksalad (Flood) [17]: 0; Plant response rating, Rice (Flood) (rice (Oryza sativa)): 0; Plant response rating, Sedge, Umbrella (Flood) [18]: 0
CON=C(c1cc(Cl)cc(Cl)c1F)c1c(O)c(C)nn(C)c1=O [Compound 153] | 100 | 100 | 90 | 80 | 100 | 90 | 90 | 60 | 100 | 100 | 100 | 90 | 90 | 100 | 80 | 90 | 50 | 80 | 20 | 50 | Foxtail, Giant plant response rating (0 to 100 scale) ([10]; 31 g ai/ha): 90; Foxtail, Giant plant response rating (0 to 100 scale) ([10]; 125 g ai/ha): 100; Galium plant response rating (0 to 100 scale) ([11]; 31 g ai/ha): 100; Galium plant response rating (0 to 100 scale) ([11]; 125 g ai/ha): 100; Kochia plant response rating (0 to 100 scale) (kochia (Bassia scoparia) [12]; 31 g ai/ha): 90; Kochia plant response rating (0 to 100 scale) (kochia (Bassia scoparia) [12]; 125 g ai/ha): 100; Pigweed plant response rating (0 to 100 scale) ([13]; Postemergence, 31 g ai/ha): 100; Pigweed plant response rating (0 to 100 scale) [13, 20]: 100; Ragweed plant response rating (0 to 100 scale) ([14]; Postemergence, 31 g ai/ha): 90; Ragweed plant response rating (0 to 100 scale) [14, 20]: 100; Wheat plant response rating (0 to 100 scale) ([15]; Postemergence, 31 g ai/ha): 40; Wheat plant response rating (0 to 100 scale) [15, 20]: 80; Plant response rating, Barnyardgrass (Flood) [16]: 80; Plant response rating, Ducksalad (Flood) [17]: 55; Plant response rating, Rice (Flood) (rice (Oryza sativa)): 40; Plant response rating, Sedge, Umbrella (Flood) [18]: 70
C#CCO/N=C(/c1cc(C)cc(Cl)c1)c1c(O)c(C)nn(C)c1=O [Compound 154] | 100 | 40 | 90 | 40 | 100 | 60 | 90 | 0 | 90 | 40 | 80 | 40 | 70 | 100 | 50 | 90 | 50 | 90 | 0 | 40 | Foxtail, Giant plant response rating (0 to 100 scale) ([10]; 31 g ai/ha): 80; Foxtail, Giant plant response rating (0 to 100 scale) ([10]; 125 g ai/ha): 90; Galium plant response rating (0 to 100 scale) ([11]; 31 g ai/ha): 90; Galium plant response rating (0 to 100 scale) ([11]; 125 g ai/ha): 100; Kochia plant response rating (0 to 100 scale) (kochia (Bassia scoparia) [12]; 31 g ai/ha): 60; Kochia plant response rating (0 to 100 scale) (kochia (Bassia scoparia) [12]; 125 g ai/ha): 70; Pigweed plant response rating (0 to 100 scale) ([13]; Postemergence, 31 g ai/ha): 30; Pigweed plant response rating (0 to 100 scale) [13, 20]: 100; Ragweed plant response rating (0 to 100 scale) ([14]; Postemergence, 31 g ai/ha): 70; Ragweed plant response rating (0 to 100 scale) [14, 20]: 90; Wheat plant response rating (0 to 100 scale) ([15]; Postemergence, 31 g ai/ha): 30; Wheat plant response rating (0 to 100 scale) [15, 20]: 90; Plant response rating, Barnyardgrass (Flood) [16]: 0; Plant response rating, Ducksalad (Flood) [17]: 0; Plant response rating, Rice (Flood) (rice (Oryza sativa)): 0; Plant response rating, Sedge, Umbrella (Flood) [18]: 0
C#CCO/N=C(\c1cc(C)cc(Cl)c1)c1c(O)c(C)nn(C)c1=O [Compound 155] | 100 | 40 | 100 | 70 | 90 | 80 | 90 | 0 | 100 | 40 | 90 | 70 | 90 | 100 | 50 | 80 | 30 | 90 | 0 | 20 | Foxtail, Giant plant response rating (0 to 100 scale) ([10]; 31 g ai/ha): 80; Foxtail, Giant plant response rating (0 to 100 scale) ([10]; 125 g ai/ha): 90; Galium plant response rating (0 to 100 scale) ([11]; 31 g ai/ha): 90; Galium plant response rating (0 to 100 scale) ([11]; 125 g ai/ha): 90; Kochia plant response rating (0 to 100 scale) (kochia (Bassia scoparia) [12]; 31 g ai/ha): 70; Kochia plant response rating (0 to 100 scale) (kochia (Bassia scoparia) [12]; 125 g ai/ha): 80; Pigweed plant response rating (0 to 100 scale) ([13]; Postemergence, 31 g ai/ha): 50; Pigweed plant response rating (0 to 100 scale) [13, 20]: 100; Ragweed plant response rating (0 to 100 scale) ([14]; Postemergence, 31 g ai/ha): 90; Ragweed plant response rating (0 to 100 scale) [14, 20]: 100; Wheat plant response rating (0 to 100 scale) ([15]; Postemergence, 31 g ai/ha): 0; Wheat plant response rating (0 to 100 scale) [15, 20]: 60; Plant response rating, Barnyardgrass (Flood) [16]: 15; Plant response rating, Ducksalad (Flood) [17]: 30; Plant response rating, Rice (Flood) (rice (Oryza sativa)): 0; Plant response rating, Sedge, Umbrella (Flood) [18]: 45
